Laboratory results reported in patent US20240368153A1, “Aminopyridine-based MTA-Cooperative PRMT5 Inhibitors” (Mirati Therapeutics, Inc., priority 2021, published 2024).
pIC50, pKd: −log10 of the molar value. Read-outs that look alike come from different tables or passages of the source.

Experiments:
[1] = target: PRMT5•MTA (biotinylated PRMT5-MEP50) (Homo sapiens (Human), UniProt O14744); assay: SPR binding assay, MTA running buffer; details: 20 μM MTA running buffer
Protocol: (§1) SPR screening was performed in MTA running buffer (25 mM Bicine pH 7.6, 100 mM NaCl, 1 mM TCEP, 20 μM MTA, 0.05% Tween-20 and 2% DMSO). The biotinylated PRMT5-MEP50 surface was equilibrated with MTA running buffer for 12 hours prior to the start. […] Subsequently, compound titration was repeated in SAM-running buffer (25 mM Bicine pH 7.6, 100 mM NaCl, 1 mM TCEP, 20 μM SAM, 0.05% Tween-20, and 2% DMSO). […] After double referencing, the steady-state response was extracted for each fragment concentration and was fit to the Langmuir isotherm equation to determine the equilibrium dissociation constant (KD).

[2] = target: recombinant human dual expressed Avi PRMT5/His-MEP50 protein (Homo sapiens (Human), UniProt O14744); assay: HTRF binding assay in presence of MTA; details: 30 μM MTA
Protocol: The PRMT5 binding activity of compounds of the present invention was determined using an HTRF binding assay or SPR assay.
A recombinant human dual expressed Avi PRMT5/His-MEP50) protein (corresponding to amino acids for PRMT5 2-637, and 2-342 for MEP50 expressed in baculovirus) was incubated with target fragments in final buffer (25 mM ADA pH 7.2, 30 μM MTA, 1 mM TCEP, 50 mM NaCl, 0.002% Tween, 5 nM proprietary Tracer binding compound prepared in-house), overnight at 2-8° C. After overnight incubation the binding is monitored after the addition of 0.5 nM Anti-His-Tb (Cisbio) after 1 hr incubation at RT (˜20-24 hrs total binding time). The HTRF signal was measured using a Clariostar reader (BMG) excitation filter (Ex Tr), dichroic filter (LP TP) and emission filters (F 665-10 and F 620-10) manufacturer's instructions. The HTRF ratio was calculated using the formula: [emission 665/emission 620]*10000.

[3] = target: PRMT5•SAM (biotinylated PRMT5-MEP50) (Homo sapiens (Human), UniProt O14744); assay: SPR binding assay, SAM running buffer; details: 20 μM SAM running buffer
Protocol: as §1

[4] = target: PRMT5/MEP50 complex (Homo sapiens (Human), UniProt O14744); assay: PRMT5:MEP50 FlashPlate Assay; assay type: biochemical
Protocol: The PRMT5 inhibitory activity of compounds of the present invention was determined using a PRMT5:MEP50 FlashPlate Assay (Reaction Biology Corporation).
The assay uses purified human, PRMT5 enzyme to convert S-adenosyl-L-[methyl-^3H]methionine plus histone H4 L-arginine to S-adenosyl-L-homocysteine plus histone H4 [methyl-^3H]-L-arginine. The assay was carried out using Streptavidin-coated FlashPlates (Perkin Elmer), which contained a scintillant embedded in the plastic of the plate. The histone H4 peptide substrate was conjugated with biotin, which binds to the streptavidin-coated well of the plate, placing the H4 peptide in close proximity to the side well and the scintillant. The transfer of the tritiated methyl group from S-adenosyl-L-[methyl-^3H]methionine to the bound histone H4 peptide generated a radiolabeled histone H4, which was quantitated by measuring in a scintillation counter to determine the activity of PRMT5 enzyme in the presence and absence of compound. […] Briefly, compounds of the present invention were solubilized in 100% DMSO at a highest concentration of 10 mM. For IC, determinations, the initial starting concentration for the serial dilutions of each compound was 50 μM. Control samples lacking compound, PRMT5/MEP50 complex or various reaction components also were prepared and processed in parallel with compound test samples. SAH was used as a positive control for assay validation. To measure PRMT5 inhibitory activity, 3 nM PRMT5/MEP50 complex (Reaction Biology Corporation) was preincubated with test compound in assay buffer containing 40 nM histone H4 peptide (amino acids 1-15)-Biotin conjugate for 20 min at room temperature. The enzymatic reaction was initiated by adding 1 μM tritiated S-adenosyl methionine (final concentration) and the reaction is allowed to proceed for 20 min. The reaction was stopped and the amount of bound, tritiated H4 peptide in each sample was determined using a scintillation counter. The IC50 value for each compound was calculated from each 10-point dose-response curve for samples plus and minus MTA using GraphPad Prism software and the results for exemplary compounds of Formula (I) is shown in Table 9a.

[5] = histone H4 peptide, absence of MTA, read-out: IC50
[6] = read-out: IC50 + 2 μM MTA, histone H4 peptide, presence of 2 μM MTA

Sequence of recombinant human dual expressed Avi PRMT5/His-MEP50 protein (O14744 2-637): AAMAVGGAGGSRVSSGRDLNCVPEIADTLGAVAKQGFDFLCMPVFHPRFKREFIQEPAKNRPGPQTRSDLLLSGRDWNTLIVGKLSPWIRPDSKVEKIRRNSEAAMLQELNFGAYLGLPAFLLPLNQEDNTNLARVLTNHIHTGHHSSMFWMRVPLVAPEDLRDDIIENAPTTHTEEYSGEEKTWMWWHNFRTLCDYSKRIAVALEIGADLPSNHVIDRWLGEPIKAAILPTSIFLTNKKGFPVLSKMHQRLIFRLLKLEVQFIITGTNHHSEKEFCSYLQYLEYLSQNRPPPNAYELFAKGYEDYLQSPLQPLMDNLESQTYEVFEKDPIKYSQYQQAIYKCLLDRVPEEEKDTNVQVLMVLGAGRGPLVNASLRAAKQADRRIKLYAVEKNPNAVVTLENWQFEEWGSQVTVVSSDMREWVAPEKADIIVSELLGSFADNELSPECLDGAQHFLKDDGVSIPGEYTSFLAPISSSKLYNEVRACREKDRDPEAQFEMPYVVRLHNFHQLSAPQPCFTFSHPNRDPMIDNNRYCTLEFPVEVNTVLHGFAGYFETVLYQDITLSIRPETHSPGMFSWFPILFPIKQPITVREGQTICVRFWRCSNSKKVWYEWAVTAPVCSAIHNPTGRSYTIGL
Sequence of recombinant human dual expressed Avi PRMT5/His-MEP50 protein (Q9BQA1 2-342 partner): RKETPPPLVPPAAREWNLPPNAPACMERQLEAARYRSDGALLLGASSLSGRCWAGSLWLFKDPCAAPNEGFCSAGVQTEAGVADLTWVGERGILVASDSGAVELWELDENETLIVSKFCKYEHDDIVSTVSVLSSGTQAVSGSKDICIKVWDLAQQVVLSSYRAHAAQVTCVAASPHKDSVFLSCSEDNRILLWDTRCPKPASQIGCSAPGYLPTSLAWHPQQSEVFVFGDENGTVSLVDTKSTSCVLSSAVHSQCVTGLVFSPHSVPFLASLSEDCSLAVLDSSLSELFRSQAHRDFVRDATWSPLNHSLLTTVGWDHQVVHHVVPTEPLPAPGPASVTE
Sequence of PRMT5/MEP50 complex (O14744 whole entry): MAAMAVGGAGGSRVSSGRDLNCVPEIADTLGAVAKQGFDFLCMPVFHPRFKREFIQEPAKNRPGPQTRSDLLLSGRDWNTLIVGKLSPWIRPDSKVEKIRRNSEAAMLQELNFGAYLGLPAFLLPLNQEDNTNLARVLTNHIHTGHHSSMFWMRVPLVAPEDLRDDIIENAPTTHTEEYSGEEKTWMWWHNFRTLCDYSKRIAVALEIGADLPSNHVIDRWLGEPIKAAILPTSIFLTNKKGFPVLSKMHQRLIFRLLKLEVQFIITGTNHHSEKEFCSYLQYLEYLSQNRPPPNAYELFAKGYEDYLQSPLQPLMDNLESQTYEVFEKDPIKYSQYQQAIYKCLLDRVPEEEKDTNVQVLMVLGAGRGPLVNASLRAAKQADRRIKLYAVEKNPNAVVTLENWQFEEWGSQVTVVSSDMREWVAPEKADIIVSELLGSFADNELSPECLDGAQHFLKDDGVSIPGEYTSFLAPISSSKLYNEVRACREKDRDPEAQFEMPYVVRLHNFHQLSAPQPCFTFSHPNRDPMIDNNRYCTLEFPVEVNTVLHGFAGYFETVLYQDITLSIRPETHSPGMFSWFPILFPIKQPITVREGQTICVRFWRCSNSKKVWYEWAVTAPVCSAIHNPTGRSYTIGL
Sequence of PRMT5/MEP50 complex (Q9BQA1 whole entry partner): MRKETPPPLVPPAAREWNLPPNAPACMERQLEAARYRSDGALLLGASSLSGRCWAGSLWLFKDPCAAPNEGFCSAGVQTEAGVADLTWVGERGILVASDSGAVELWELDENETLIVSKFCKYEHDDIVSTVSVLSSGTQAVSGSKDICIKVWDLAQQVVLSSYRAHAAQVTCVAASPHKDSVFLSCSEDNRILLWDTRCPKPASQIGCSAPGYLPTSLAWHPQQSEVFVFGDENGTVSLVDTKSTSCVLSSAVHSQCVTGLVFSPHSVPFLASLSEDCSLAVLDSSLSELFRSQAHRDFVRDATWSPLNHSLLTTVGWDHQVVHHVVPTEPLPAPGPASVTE
Sequence of PRMT5•MTA (biotinylated PRMT5-MEP50) (O14744 whole entry, the tested form may be a part): as the sequence (O14744 whole entry) above
Sequence of PRMT5•MTA (biotinylated PRMT5-MEP50) (Q9BQA1 whole entry partner, the tested form may be a part): as the sequence (Q9BQA1 whole entry partner) above
Sequence of PRMT5•SAM (biotinylated PRMT5-MEP50) (O14744 whole entry): as the sequence (O14744 whole entry) above
Sequence of PRMT5•SAM (biotinylated PRMT5-MEP50) (Q9BQA1 whole entry partner): as the sequence (Q9BQA1 whole entry partner) above

SMILES	pKd [1]	pIC50 [2]	pKd [3]	pIC50 [4, 5]	pIC50 [4, 6]	pIC50 ([4]; IC50 + 2 μM MTA, histone H4 peptide, presence of 2 μM MTA)
CC(=O)N(C)Cc1cc2nc(N)c(C)cc2n1C(C)=O [Example 15-8, N-((1-acetyl-5-amino-6-methyl-1H-pyrrolo[3,2-b]pyridin-2-yl)methyl)-N-methylacetamide]	7.37	6.00	6.47			
Cc1cc2[nH]c(C(C#N)N3C(=O)c4ccccc4C3=O)cc2nc1N (centres unmarked) [Example 14-5, 2-(5-amino-6-methyl-1H-pyrrolo[3,2-b]pyridin-2-yl)-2-(1,3-dioxoisoindolin-2-yl)acetonitrile]	6.69	7.43	6.14	3.61	5.37	
Cc1cc(N)nc2cc(Cc3ccccc3C#N)cnc12 [Example 2-4, 2-((6-amino-8-methyl-1,5-naphthyridin-3-yl)methyl)benzonitrile]	6.06	6.00	5.51	< 3.52	< 3.52	
Cc1cc2[nH]c(Cn3ccc4ccccc4c3=O)cc2nc1N [Example 14-7, 2-[(5-amino-6-methyl-1H-pyrrolo[3,2-b]pyridin-2-yl)methyl]isoquinolin-1-one]	8.70	8.10	8.22	4.44	6.32	
Cc1cc(N)nc2ccc(-c3ccccc3F)nc12 [Example 4-7, 6-(2-fluorophenyl)-4-methyl-1,5-naphthyridin-2-amine]	4.50	4.99	4.09	< 3.52	< 3.52	
Cc1cc(N)nc2cc(CNC(=O)c3ccncn3)cnc12 [Example 7-2, N-[(6-amino-8-methyl-1,5-naphthyridin-3-yl)methyl]pyrimidine-4-carboxamide]	6.82	6.50	5.65	< 4.00	4.66	
Cc1cc(N)nc2cc(-c3cnsc3)cnc12 [Example 1-8, 7-(isothiazol-4-yl)-4-methyl-1,5-naphthyridin-2-amine]	5.12	4.94	4.72	< 3.52	< 3.52	
Cc1cc2sc(CNC(=O)c3ccccc3)cc2nc1N [Example 16-1, N-[(5-amino-6-methyl-thieno[3,2-b]pyridin-2-yl)methyl]benzamide]	7.14	6.79	5.87	< 3.52	4.74	
Cc1cc(N)nc2cc(CNC(=O)c3cc(O)ncn3)cnc12 [Example 7-3, N-[(6-amino-8-methyl-1,5-naphthyridin-3-yl)methyl]-6-hydroxy-pyrimidine-4-carboxamide]	6.17	5.98	4.90	< 4.00	4.22	
CC(=O)NCc1cc2nc(N)c(C)cc2[nH]1 [Example 14-3, N-((5-amino-6-methyl-1H-pyrrolo[3,2-b]pyridin-2-yl)methyl)acetamide]	7.92	6.99	7.42	3.57	6.86	
Nc1nc2cc[nH]c2cc1C1CC1 [Example 9-2, 6-cyclopropyl-1H-pyrrolo[3,2-b]pyridin-5-amine]	5.49	4.61	4.71	3.63	4.01	
Cc1cc(N)nc2cc(Cc3cccnc3)cnc12 [Example 2-7, 4-methyl-7-(3-pyridylmethyl)-1,5-naphthyridin-2-amine]	6.63	6.24	5.91			
Cc1cc(N)nc2cc(Cc3ccccc3F)cnc12 [Example 2-2, 7-(2-fluorobenzyl)-4-methyl-1,5-naphthyridin-2-amine]	5.28	6.45	4.41			
Cc1cc2[nH]c(CN3CCc4ccccc4C3=O)cc2nc1N [Example 14-6, 2-[(5-amino-6-methyl-1H-pyrrolo[3,2-b]pyridin-2-yl)methyl]-3,4-dihydroisoquinolin-1-one]	9.00	8.15	8.22	4.36	6.30	
Cc1cc2[nH]ccc2nc1N [Example 9-1, 6-methyl-1H-pyrrolo[3,2-b]pyridin-5-amine]	6.34	5.66	5.47	3.73	4.55	
Nc1nc2cc[nH]c2cc1C(F)(F)F [Example 9-3, 6-(trifluoromethyl)-1H-pyrrolo[3,2-b]pyridin-5-amine]	4.93	4.69	4.53	3.37	3.68	
Cc1cc(N)nc2cc(Cc3cnn(C)c3)cnc12 [Example 2-9, 4-methyl-7-[(1-methylpyrazol-4-yl)methyl]-1,5-naphthyridin-2-amine]	6.86	6.69	6.13	3.61	4.77	
Cc1cc(N)nc2cc(CNC(=O)c3ccccc3)cnc12 [Example 7-1, N-[(6-amino-8-methyl-1,5-naphthyridin-3-yl)methyl]benzamide]	7.03	6.80	6.40	4.20	5.25	
Cc1cc(N)nc2cc(C(C#N)N3C(=O)c4ccccc4C3=O)cnc12 (centres unmarked) [Example 7-7, 2-(6-amino-8-methyl-1,5-naphthyridin-3-yl)-2-(1,3-dioxoisoindolin-2-yl)acetonitrile]		7.62		< 3.52	5.62	
Cc1cc2[nH]c(-n3cnc(Br)n3)cc2nc1N [Example 13-2, 2-(3-bromo-1,2,4-triazol-1-yl)-6-methyl-1H-pyrrolo[3,2-b]pyridin-5-amine]		5.37		4.08		4.14
Nc1ccc2[nH]c(NC(=O)c3ccccc3)cc2n1 [Example 12-3, N-(5-amino-1H-pyrrolo[3,2-b]pyridin-2-yl)benzamide]		4.74		4.02	4.01	
Cc1cc(N)nc2cc(Oc3cccnc3)cnc12 [Example 3-7, 4-methyl-7-(3-pyridyloxy)-1,5-paphthyridin-2-amine]	5.61	6.26		3.45	4.58	
CC(=O)c1c(CNC(=O)c2ccccc2)[nH]c2cc(C)c(N)nc12 [Example 15-5, N-((3-acetyl-5-amino-6-methyl-1H-pyrrolo[3,2-b]pyridin-2-yl)methyl)benzamide]	3.11	≤ 4.00	3.20			
Cc1cc2c(cc(CNC(=O)c3ccccc3)n2C2CC2)nc1N [Example 15-1, N-[(5-amino-1-cyclopropyl-6-methyl-pyrrolo[3,2-b]pyridin-2-yl)methyl]benzamide]	7.18	6.44		< 3.52	4.35	
Cc1cc2[nH]c(CNC(=O)c3ccccc3)c(C#N)c2nc1N [Example 15-6, N-((5-amino-3-cyano-6-methyl-1H-pyrrolo[3,2-b]pyridin-2-yl)methyl)benzamide]		5.58		< 3.52	4.12	
